For series [1], the system named is C. albicans tet-NRG1 strain filamentation. It is filed as cell-based, Candida albicans. Particulars: YPD plus DOX, dose response.
Series [2] has as its system C. albicans wild-type strain SC5314 biofilm formation. Nature of the series: microbe, parasite or virus in culture. It is filed as cell-based, Candida albicans. As to conditions: for Inhibition of biofilm formation: NCI Natural set, dose response; for IC50: SC5314, 24 h.
Another series in a line: in vitro. Particulars: human.
The test system of a further series is C. albicans. Particulars: cited from earlier work.
Series [3] concerns Human hepatocellular carcinoma (HepG2) cells.

As usually defined, the IC50 is the concentration that inhibits the measured activity by half. Read a high IC50 as a need for much substance.

Starred links: 1 amine or outer side, 2 acyl side, 3 side chain; linkers in the order of their positions; H or OH if unused. Positions of bridges follow the written chain, without caps; N, C: chain ends. Non-standard residues stand in square brackets, D forms with d. Residues, ends and D or L forms follow the SMILES beside them. *: point of attachment. Ileψ(thiazoline)Cys = CC[C@H](C)[C@H](N)C1=N[C@H](C(=O)*)CS1; X2 = CCC(=O)CC(O)C[C@@H](C)C[C@H](N[*:1])C(=O)[*:2]; Alaψ(CH2NMeCH2CH2OH) = C[C@@H](CN(C)CCO)N*; dOrn = NCCC[C@@H](N)C(=O)O; X1 = CCCCCCCCC(C)C(=O)*; Aib = CC(C)(N)C(=O)O

On to `CC(=O)O[C@@H]1C[C@H]2O[C@@H]3C=C(C)CC[C@]3(C)[C@]1(C)[C@]21CO1` [Compound 1, Trichoderonin], for which, in series [1], the “Inhibition of filamentation” value was “inhibited filamentation in a dose-response manner”. On to `COc1ccc(C[C@H]2NC[C@H](O)[C@H]2OC(C)=O)cc1` [Compound 2, Anisomycin], for which the “Inhibition of biofilm formation” value in series [2] is given as “inhibited biofilm formation only”. In turn, `CC[C@H](C)[C@H](N)C1=N[C@H](C(=O)N[C@@H](CC(C)C)C(=O)N[C@H](CCC(=O)O)C(=O)N[C@H](C(=O)N[C@H]2CCCCNC(=O)[C@H](CC(N)=O)NC(=O)[C@@H](CC(=O)O)NC(=O)[C@H](Cc3cnc[nH]3)NC(=O)[C@@H](Cc3ccccc3)NC(=O)[C@H]([C@@H](C)CC)NC(=O)[C@@H](CCCN)NC2=O)[C@@H](C)CC)CS1` [Compound 4, Bacitracin] ({Ileψ(thiazoline)Cys}-L[dE]IK[dOrn]I[dF]H[dD]N; lactam 4-C (inferred)) registered a CC50 at 24 hr in the series “in vitro” greater than 100000 nM. `CC[C@H](C)[C@H](N)C1=N[C@H](C(=O)N[C@@H](CC(C)C)C(=O)N[C@H](CCC(=O)O)C(=O)N[C@H](C(=O)N[C@H]2CCCCNC(=O)[C@H](CC(N)=O)NC(=O)[C@@H](CC(=O)O)NC(=O)[C@H](Cc3c[nH]cn3)NC(=O)[C@@H](Cc3ccccc3)NC(=O)[C@H]([C@@H](C)CC)NC(=O)[C@@H](CCCN)NC2=O)[C@@H](C)CC)CS1` [Compound 4, Bacitracin] ({Ileψ(thiazoline)Cys}-L[dE]IK[dOrn]I[dF]H[dD]N; lactam 4-C; N-terminus assumed): in series [2], the “Inhibition of biofilm formation” value is on record as “inhibited biofilm formation only” and half-maximal inhibition (IC50) required 2130 nM. In turn, `CO[C@H]1C[C@@H]2CC[C@@H](C)[C@@](O)(O2)C(=O)C(=O)N2CCCC[C@H]2C(=O)O[C@H]([C@H](C)C[C@@H]2CC[C@@H](O)[C@H](OC)C2)CC(=O)[C@H](C)/C=C(\C)[C@@H](O)[C@@H](OC)C(=O)[C@H](C)C[C@H](C)/C=C/C=C/C=C/1C` [Compound 5, Rapamune (rapamycin, sirolimus)] registered an IC50 in series [2] (Candida albicans) of 514 nM. Besides, the “Inhibition of filamentation” value in series [1] is on record as “inhibited filamentation in a dose-response manner”. Further, the “Effect on the morphogenic transition” value in the series with C. albicans (most liquid hypha-inducing media, ref Bastidas, Heitman & Cardenas, 2009) is recorded as “no effect on the morphogenic transition”. Take `CC(C)[C@@H]1NC(=O)[C@H](C)OC(=O)[C@@H](C(C)C)NC(=O)[C@@H](C(C)C)OC(=O)[C@H](C(C)C)NC(=O)[C@H](C)OC(=O)[C@@H](C(C)C)NC(=O)[C@@H](C(C)C)OC(=O)[C@H](C(C)C)NC(=O)[C@H](C)OC(=O)[C@@H](C(C)C)NC(=O)[C@@H](C(C)C)OC1=O` [Compound 6, Valinomycin]: in series [2], the “Inhibition of biofilm formation” value is “inhibited biofilm formation only”. Moreover, the “Inhibition of hyphal growth” value with C. albicans (C. albicans, ref Watanabe, Azuma, Igarashi & Ooshima, 2005) is given as “inhibit hyphal growth”. This molecule registered a CC50 in the series “in vitro” of 2870 nM. Molecule `CC(NCCN(C)C)C1CCC2C3CCc4cc(O)ccc4C3CCC12C` (stereo not drawn) [Compound 8, 17-[1-[2-(dimethylamino)ethylamino]ethyl]-13-methyl-6,7,8,9,11,12,14,15, 16,17-decahydrocyclopenta[a]phenanthren-3-ol] yielded an IC50 in series [2] (Candida albicans) of 9.7 nM. Besides, in “in vitro”, the CC50 at 24 h was determined as 8080 nM. Regarding `CC1OC(CC(=O)O)Cc2c(O)c3c(c(O)c21)C(=O)C=C(C1=CC(=O)c2c(O)c4c(c(O)c2C1=O)CC(CC(=O)O)OC4C)C3=O` (stereo not drawn) [Compound 13, 2-[7-[3-(carboxymethyl)-5,10-dihydroxy-1-methyl-6,9-dioxo-3,4-dihydro-1H-benzo[g]isochromen-7-yl]-5,10-dihydroxy-1-methyl-6,9-dioxo-3,4-dihydro-1H-benzo[g]isochromen-3-yl]acetic acid], in series [2] (Candida albicans), half-maximal inhibition (IC50) was put at 3310 nM. `CCN(CC)CCN1c2ccccc2Sc2ccc3ccccc3c21` [Compound 14, 2-benzo[a]phenothiazin-12-yl-N,N-diethylethanamine] yielded an IC50 in series [2] (Candida albicans) of 3800 nM. Consider `CCCCCCCCC(C)C(=O)N1CCC[C@H]1C(=O)N[C@@H](C[C@H](C)CC(O)CC(=O)CC)C(=O)N[C@@H](C)C(=O)NC(C)(C)C(=O)NC(C)(C)C(=O)N[C@H](C(=O)N[C@@H](C)C(=O)NC(C)(C)C(=O)NC(C)(C)C(=O)N[C@@H](C)CN(C)CCO)C(C)C` (stereo partly drawn) [Compound 19, Trichopolyn-B] (X1-P[X2]A[Aib][Aib]VA[Aib][Aib]-{Alaψ(CH2NMeCH2CH2OH)}; N-terminus and C-terminus assumed), for which the IC50 in series [2] was 666 nM. In the series “in vitro”, this molecule registered a CC50 of 2990 nM. Consider `CCCCCCCCCCCCCCC[C@@H](O)C[N+](C)(C)CCO` [Compound 21, 2-hydroxyethyl-[(2R)-2-hydroxyheptadecyl]-dimethylazanium;iodide], for which the CC50 in series [3] was 10000 nM. With `N#Cc1cn([C@@H]2O[C@H](CO)[C@@H](O)[C@H]2O)c2ncnc(N)c12` [Compound 23, Vengicide (Unamycin B, Toyocamycin)], the IC50 in series [2] (Candida albicans) is 1040 nM. The molecule also returned a CC50 in the series “in vitro” of less than 1560 nM. The molecule `COc1cc2cc(C(=O)N3CC(COS(C)(=O)=O)c4ccc(O)cc43)[nH]c2c(OC)c1OC` (stereo not drawn) [Compound 27, 6-Hydroxy-3-((methanesulfonyloxy) Methyl)-1-((5,6,7-trimethoxyindol-2-yl)carbonyl)indoline] had an IC50 in series [2] (Candida albicans) of 495 nM. Further, in the series “in vitro”, the CC50 was less than 1560 nM. In the case of `CCCCCCCCCCCCCCC(O)C[N+](C)(CCO)CCO` (stereo not drawn) [Compound 29, Hexadecanaminium, 2-hydroxy-N,N-bis(2-hydroxyethyl)-N-methyl-, chloride], the CC50 in series [3] amounted to 13900 nM.

Consider Nanaomycin [Compound 3], for which the “Inhibition of filamentation” value in series [1] is “inhibited filamentation in a dose-response manner”.

The record behind these values is paper PMC3988658 (Pathogens and disease, 2014).
